Data: US11879142B2, “Bioactive peptide molecules discovered by a combination of bioinformatics technique and chemical synthesis” (Purdue Research Foundation, priority 2021, dated 2024)
Non-standard residues stand in square brackets, D forms with d. Residues, ends and D or L forms follow the SMILES beside them. dOrn = NCCC[C@@H](N)C(=O)O

Tests used:
[1] = system: ESKAPE pathogens; assay: CLSI microbroth dilution antibacterial assay; assay type: cell-based
Method: Bioactivity testing. Initial compounds were tested for activity against antibiotic sensitive and antibiotic resistant ESKAPE pathogens at concentrations varying between 0.5 and 32 μg/mL using the CLSI microbroth dilution assay.^47 Any well with greater than 90% death was considered a hit.
(§1) Bacterial Strains. All strains used in this study except the Bacillus strain and the colistin resistant E. coli strains were obtained from Professor Paul Hergenrother (UIUC). The Bacillus strain was obtained from Professor William Metcalf (UIUC). The colistin resistant E. coli strains (AR Bank Number 0346, 0349, and 0350) were obtained from the CDC AR Isolate bank). E. coli ATCC 25922 (wild type, WT) BAA-2469 (resistant, R), colistin resistant E. coli, K pneumonia ATCC 27736 (WT) and BAA-2146 (R), A. baumannii ATCC 19606 (WT) and KB349 (R), and P. aeruginosa PAO1 (WT) and PA1000 (R) were grown on Mueller Hinton Broth 2 (Sigma Aldrich). S. aureus ATCC 29213 (WT) and NRS3 (R), Enterococcus species ATCC 19433 (WT) and 5235 (R), and B. subtilis 6633 (WT) were maintained on Bacto Brain Heart Infusion.
Antibacterial activity analysis. […] Testing was performed as previously described.10 Turbidity (OD600) of the wells was determined using a SpectraMax iD3 platereader (Molecular Devices). For the compounds that hit during initial screens, minimum inhibitory concentrations were determined. […]

[2] = system: Colistin-resistant bacteria; assay: CLSI microbroth dilution antibacterial assay, colistin-resistant strains; assay type: cell-based, E. coli
Excerpt: as §1
Antibacterial activity analysis. Antibacterial activity analysis for all bacteria was performed using the microdilution broth method as outlined by the Clinical and Laboratory Standards Institute (CLSI).9 Mueller Hinton Broth 2 (MH, Sigma-Aldrich, 90922) was used for all testing. Testing was performed as previously described.10 Turbidity (OD600) of the wells was determined using a SpectraMax iD3 platereader (Molecular Devices). For the compounds that hit during initial screens, minimum inhibitory concentrations were determined. A minimum of three biological replicates were performed. […]

[3] = system: A549 non-small cell lung cancer cell line; assay: Alamar blue viability assay; assay type: cell-based, human; settings: 16 ug/mL, 48 hours
Method: Anticancer Testing. A549 non-small cell lung cancer cells (ATCC CCL-185) were obtained directly from ATCC and used within 30 passages. A549 cells were maintained in RPMI 1640 medium supplemented with 10% fetal bovine serum, 100 U/mL penicillin, and 100 ug/mL streptomycin. For anticancer testing, cells were seeded at 2000 cells per well in 96 well plates and allowed to adhere overnight. Cells were then treated with compound at 16 ug/mL (1% DMSO final) or vehicle control for 48 hours. Viability was assessed using Alamar Blue. Specifically, resazurin (Sigma Aldrich, R7017) was dissolved at 440 μM in sterile PBS. 20 μL was then added to each well and incubated for 4-8 h at 37° C. Fluorescence was measured using a SpectraMax iD3 platereader (Excitation: 550 nm, Emission 590 nm). Percent death was calculated by subtracting the background from all wells and setting 0% death to vehicle treated controls.

CC(C)[C@@H]1NC(=O)[C@@H](CCCNC(=N)N)NC(=O)[C@H]([C@@H](C)O)NC(=O)[C@@H](CCCN)NC(=O)[C@H](Cc2ccccc2)NC(=O)[C@@H](Cc2ccccc2)NC1=O [pNP-43] (cyclo(F[dOrn]T[dR]V[dF]))
antibacterial activity (in words) [1]: activity against several Gram-negative bacteria | susceptibility of colistin-resistant bacteria [2]: resistant | toxicity to A549 cells [3]: no observed hemolytic activity or mammalian cell toxicity
